Laboratory results reported in US20260297060A1, “COMPOUNDS FOR THE DEGRADATION OF MUTANT BRAF” (C4 THERAPEUTICS, INC., priority 2023, published 2026).

What was measured:
A375 tumors = experiment: In vivo efficacy, A375 xenograft tumor volume (Example 7); set-up: species or system human A375 melanoma xenograft in female BALB/c nude mice; conditions: oral, FIG. 14; for tumor regressions in the xenograft model: 10 mg/kg BID, A375 xenografts; for antitumor response compared with comparators dabrafenib or encorafenib: A375 human melanoma xenografts
Procedure: FIG. 14 is a line graph showing in vivo efficacy of dabrafenib, Compound 141, Compound 118, Compound 156, and Compound 180 in the treatment of female BALB/c nude mice bearing A375 tumors. Mice were treated with vehicle (10 μL/g, p.o., BID), dabrafenib (100 mg/kg, p.o., QD), Compound 141 (10 mg/kg, p.o., QD), Compound 141 (10 mg/kg, p.o., BID), Compound 118 (10 mg/kg, p.o., BID), Compound 156 (10 mg/kg, p.o., BID), or Compound 180 (10 mg/kg, p.o., BID) by oral gavage (p.o.). Data points represent group mean change in tumor volume. Error bars represent standard error of the mean (SEM). The x-axis is the time measured in days and the y-axis is A375 tumor volume measured in mm^3. The experiment was conducted as described in Example 7.

[1] = tested on: A375 human melanoma xenografts; experiment: Example 7 efficacy study in A375 human melanoma xenografts (tumor volume, T/C, TGI); format: in vivo, BALB/c nude mice; conditions: 10 mg/kg, p.o.; for T/C / TGI / Tumor Size on PG-D14 (mean ± SEM): PG-D14
Procedure: For efficacy study, agents were tested in the A375 human melanoma xenografts. Compound 118, Compound 156, and Compound 180 were administered to BALB/c nude mice bearing A375 xenografts from day 0 and dosed p.o. twice per day (BID). Compound 141 was administered from day 0 and dosed p.o. twice per day (BID) or dosed p.o. daily (QD) from day 1. Compound 141, Compound 118, Compound 156, and Compound 180 were dosed at 10 mg/kg for 14 days. The known BRAF inhibitor Dabrafenib was used as a positive control. Dabrafenib was administered from day 1 and dosed p.o. daily (QD) for 14 days and dosed at 100 mg/kg.
The A375 tumor cells were maintained in vitro in DMEM medium supplemented with […] and 1% Penicillin-Streptomycin at 37° C. in an atmosphere of 5% CO2 in air. The tumor cells were routinely subcultured twice weekly. The cells growing in an exponential growth phase were harvested and counted for tumor inoculation.
Each mouse was inoculated subcutaneously at the right flank with A375 tumor cells (5×10^6) in 0.2 mL of PBS with Matrigel (PBS: Matrigel=1:1) supplemented for tumor development. Animals were grouped when the average tumor volume reached 246 mm^3 for efficacy study and 390 mm^3 for PKPD study on day 17 after tumor inoculation. The test articles administration and the animal numbers in each group are shown in the above experimental tables.
Prior to the onset of drug treatment, mice were measured for tumor size in two dimensions using a caliper, and the tumor volume (mm^3) was calculated using formula V=0.5 a×b^2 where a and b are the long and short diameters of the tumor in mm, respectively. Mice were randomized into different treatment groups based on the tumor volume.
The major endpoint was to see if the tumor growth could be delayed or mice could be cured. The tumor size was then used for calculations of T/C value. The T/C value (in percent) is an indication of antitumor effectiveness; T and C are the mean volumes of the treated and control groups, respectively on specified day.
TGI was calculated for each group using the formula: TGI (%)=[1−(Ti−T0)/(Ci−C0)]×100; Ti is the average tumor volume of a treatment group on a given day, T0 is the average tumor volume of the treatment group on the day of treatment start, Ci is the average tumor volume of the vehicle control group on the same day with Ti, and C0 is the average tumor volume of the vehicle group on the day of treatment start.

## CCN(C)S(=O)(=O)Nc1ccc(F)c(Oc2ccc3ncn(C4CC5(CCN(C6CC7(C6)CN(c6cc8c(cc6F)c(N6CCC(=O)NC6=O)nn8C)C7)CC5)C4)c(=O)c3c2)c1C#N (stereo not shown) [Compound 141, 6-[2-cyano-3-[[ethyl(methyl)sulfamoyl]amino]-6-fluoro-phenoxy]-3-[7-[2-[3-(2,4-dioxohexahydropyrimidin-1-yl)-5-fluoro-1-methyl-indazol-6-yl]-2-azaspiro[3.3]heptan-6-yl]-7-azaspiro[3.5]nonan-2-yl]-4-oxo-quinazoline]
A375 tumors
  tumor regressions in the xenograft model: profound tumor regressions
  antitumor response compared with comparators dabrafenib or encorafenib: more robust antitumor response
[1]; BID × 14 days
  T/C: 2.4%
  TGI: 119.8%
  Tumor Size on PG-D14 (mean ± SEM): 32 ± 4 mm^3
[1]; BID × 14 days, day 0
  Tumor Volume (mean ± SEM): 246 ± 15 mm^3
[1]; BID × 14 days, day 3
  Tumor Volume (mean ± SEM): 181 ± 15 mm^3
[1]; BID × 14 days, day 7
  Tumor Volume (mean ± SEM): 109 ± 13 mm^3
[1]; BID × 14 days, day 10
  Tumor Volume (mean ± SEM): 59 ± 6 mm^3
[1]; BID × 14 days, day 14
  Tumor Volume (mean ± SEM): 32 ± 4 mm^3
[1]; QD × 14 days
  T/C: 3.0%
  TGI: 119.0%
  Tumor Size on PG-D14 (mean ± SEM): 40 ± 6 mm^3
[1]; QD × 14 days, day 0
  Tumor Volume (mean ± SEM): 246 ± 12 mm^3
[1]; QD × 14 days, day 3
  Tumor Volume (mean ± SEM): 275 ± 9 mm^3
[1]; QD × 14 days, day 7
  Tumor Volume (mean ± SEM): 138 ± 13 mm^3
[1]; QD × 14 days, day 10
  Tumor Volume (mean ± SEM): 81 ± 9 mm^3
[1]; QD × 14 days, day 14
  Tumor Volume (mean ± SEM): 40 ± 6 mm^3

## CCN(C)S(=O)(=O)Nc1ccc(F)c(Oc2ccc3ncn(C4CC5(CCN(C6CCN(c7cc8c(cc7F)c(N7CCC(=O)NC7=O)nn8C)CC6)CC5)C4)c(=O)c3c2)c1C#N [Compound 156, 6-[2-cyano-3-[[ethyl(methyl)sulfamoyl]amino]-6-fluoro-phenoxy]-3-[7-[1-[3-(2,4-dioxohexahydropyrimidin-1-yl)-5-fluoro-1-methyl-indazol-6-yl]-4-piperidyl]-7-azaspiro[3.5]nonan-2-yl]-4-oxo-quinazoline]
A375 tumors
  tumor regressions in the xenograft model: profound tumor regressions
  antitumor response compared with comparators dabrafenib or encorafenib: more robust antitumor response
[1]; BID × 14 days
  T/C: 2.6%
  TGI: 119.6%
  Tumor Size on PG-D14 (mean ± SEM): 34 ± 5 mm^3
[1]; BID × 14 days, day 0
  Tumor Volume (mean ± SEM): 246 ± 13 mm^3
[1]; BID × 14 days, day 3
  Tumor Volume (mean ± SEM): 203 ± 16 mm^3
[1]; BID × 14 days, day 7
  Tumor Volume (mean ± SEM): 111 ± 4 mm^3
[1]; BID × 14 days, day 10
  Tumor Volume (mean ± SEM): 68 ± 3 mm^3
[1]; BID × 14 days, day 14
  Tumor Volume (mean ± SEM): 34 ± 5 mm^3
